The subject of experiment [1] is mitochondrial protein synthesis in HepG2 cells (COX-I / SDH-A). Description: Mitochondrial protein synthesis assay. Type of experiment: cell-based. The settings on record: Homo sapiens, read-out: MPS IC50_μM. The procedure:
(§1) Inhibition of mitochondrial protein synthesis was assessed in HepG2 cells by comparing the levels of two subunits of oxidative phosphorylation enzyme complexes, subunit I of Complex IV (COX-I) and the 70 kDa subunit of Complex II (SDH-A). COX-I is mitochondrial DNA encoded and SDH-A is nuclear DNA encoded. HepG2 cells were seeded in 96-well collagen coated plates at 8,000 cells per well and exposed to 2-fold serial dilutions of compounds from 100 LM to 6.25 μM. Microtiter plates were incubated for approximately 5 replication cycles (4 days) prior to assessment of protein levels using a kit as described by the manufacturer (ab 110217 MitoBiogenesis In Cell ELISA Kit, Abcam, Cambridge, Mass.). Inhibition of mitochondrial protein synthesis was expressed as a ratio of COX-1 to SDH-A levels.
as §1, with “μM” for “LM”

Experiment [2] concerns Staphylococcus aureus (methicillin resistant, MB5393, COL). Description: microbe, parasite or virus in culture. The settings on record: MRSA, 22 h, read-out: MRSA COL MITC95 μM. Type of experiment: cell-based. The procedure: Inhibition of Staphylococcus aureus (methicillin resistant, MB5393, COL) growth was assessed in cation adjusted Mueller Hinton II broth (CAMHB) in 384-well microtiter plates. Bacteria were dispensed into microtiter plates at approximately 5×10^5 actively growing cells in 49 μL volumes per well. Cells were exposed to 2-fold serial dilutions of compounds from 200 μM to 0.195 μM and growth compared to drug-free control. Compound dilutions were prepared in 100% dimethylsulfoxide and added to microtiter plates in 1 μL volumes per well. Full growth control wells contained dimethylsufoxide and bacteria. No growth control wells contained dimethysulfoxide and CAMHB but no bacteria. Growth inhibition was assessed after a 22-hour growth period by measuring optical density using a spectrophotometer. The lowest concentration of test compound required to inhibit 95% of the growth of the bacteria was defined as the MITC95. All studies were done in a BSL2 facility.

In experiment [3] the test system is Mycobacterium tuberculosis (Mtb). Put plainly: microbe, parasite or virus in culture. The settings on record: 168 h. Type of experiment: cell-based, Mycobacterium tuberculosis H37Rv (Mtb-GFP).
Setting [4] is: 96 h, HepG2 cells, 4 days, ratio of COX-1 to SDH-A levels.
Setting [5] is: pH 6.8, read-out: Mtb Cho MITC95_μM.
The mark [6] stands for this setting: pH 6.8, read-out: Mtb Glu MITC95_μM.

Our source for the IC50 and MIC values is US10947205B2, “Oxazolidinone compounds and methods of use thereof as antibacterial agents” (priority 2015, dated 2021).

Molecules are shown by their SMILES. Values after ≈ are worked out from the molar mass of the structure shown. Where two headings read alike, the source gives them in different places.

With `Cn1cc(-c2ccc(N3C[C@H](CN)OC3=O)cc2F)cn1` [Example 37, (5S)-5-(aminomethyl)-3-[3-fluoro-4-(1-methyl-1H-pyrazol-4-yl)phenyl]-1,3-oxazolidin-2-one], in experiment [1] (setting [4]), the IC50 is above 20 µM. Besides, the MIC in experiment [2] came out at 200 µM (≈ 58.1 µg/mL); in experiment [3] (setting [5]) it was 0.39 µM (≈ 0.113 µg/mL); in experiment [3] (setting [6]), 0.29 µM (≈ 0.0842 µg/mL).

With `CCOC(=O)NC[C@H]1CN(c2ccc(-c3ccc(SC)cc3)c(F)c2)C(=O)O1` [Example 63, ethyl ({(5S)-3-[2-fluoro-4′-(methylsulfanyl)biphenyl-4-yl]-2-oxo-1,3-oxazolidin-5-yl}methyl)carbamate], in experiment [1] (setting [4]), the IC50 turned out to be 18 µM. In addition, the MIC in experiment [2] turned out to be 200 µM (≈ 80.9 µg/mL); in experiment [3] (setting [5]) it was 0.19 µM (≈ 0.0768 µg/mL); in experiment [3] (setting [6]), 0.29 µM (≈ 0.117 µg/mL).

For `NC[C@H]1CN(c2cc(F)c(N3CCOCC3)c(F)c2)C(=O)O1` [Example 59, (S)-5-(aminomethyl)-3-(3,5-difluoro-4-morpholinophenyl)oxazolidin-2-one], in experiment [1] (setting [4]), the IC50 is above 20 µM. Also, the MIC in experiment [2] was found to be 200 µM (≈ 62.7 µg/mL); in experiment [3] (setting [5]), 0.39 µM (≈ 0.122 µg/mL); in experiment [3] (setting [6]) it was 0.09 µM (≈ 0.0282 µg/mL).

As to `CSc1cccc(-c2ccc(N3C[C@H](CN)OC3=O)cc2F)c1` [Example 3, (5S)-5-(aminomethyl)-3-[2-fluoro-3′-(methylsulfanyl)biphenyl-4-yl]-1,3-oxazolidin-2-one], the IC50 in experiment [1] (setting [4]) was above 20 µM. Moreover, the MIC in experiment [2] amounted to 100 µM (≈ 33.2 µg/mL); in experiment [3] (setting [5]), 0.78 µM (≈ 0.259 µg/mL); in experiment [3] (setting [6]), 1.14 µM (≈ 0.379 µg/mL).

On to `CS(=N)(=O)c1ccc(-c2ccc(N3C[C@H](Cn4ccnn4)OC3=O)cc2F)cc1` (stereo partly drawn) [Example 64, (5R)-5-((1H-1,2,3-triazol-1-yl)methyl)-3-(2-fluoro-4′-(S-methylsulfonimidoyl)-[1,1′-biphenyl]-4-yl)oxazolidin-2-one], for which the IC50 in experiment [1] (setting [4]) was above 20 µM. For the same compound, the MIC in experiment [2] turned out to be 0.39 µM (≈ 0.162 µg/mL); in experiment [3] (setting [5]), 0.09 µM (≈ 0.0374 µg/mL); in experiment [3] (setting [6]) it was 0.09 µM (≈ 0.0374 µg/mL).

With `COc1ncc(-c2ccc(N3C[C@H](CN)OC3=O)cc2F)cn1` [Example 28, (5S)-5-(aminomethyl)-3-[3-fluoro-4-(2-methoxypyrimidin-5-yl)phenyl]-1,3-oxazolidin-2-one], the IC50 in experiment [1] (setting [4]) was above 100 µM. Moreover, the MIC was found to be 200 µM (≈ 63.7 µg/mL) in experiment [2], 1.14 µM (≈ 0.363 µg/mL) in experiment [3] (setting [5]) and 0.3 µM (≈ 0.0955 µg/mL) in experiment [3] (setting [6]).

As for `NC[C@H]1CN(c2ccc(-c3cncnc3)c(F)c2)C(=O)O1` [Example 25, (5S)-5-(aminomethyl)-3-(3-fluoro-4-pyrimidin-5-ylphenyl)-1,3-oxazolidin-2-one], in experiment [1] (setting [4]), the IC50 is above 20 µM. Moreover, the MIC turned out to be 200 µM (≈ 57.7 µg/mL) in experiment [2], 0.19 µM (≈ 0.0548 µg/mL) in experiment [3] (setting [5]) and 0.04 µM (≈ 0.0115 µg/mL) in experiment [3] (setting [6]).

In the case of `NC[C@H]1CN(c2ccc(-c3cccc(C(N)=O)c3)c(F)c2)C(=O)O1` [Example 10, 4′-[(5S)-5-(aminomethyl)-2-oxo-1,3-oxazolidin-3-yl]-2′-fluorobiphenyl-3-carboxamide], in experiment [1] (setting [4]), the IC50 was above 20 µM. The MIC came to 200 µM (≈ 65.9 µg/mL) in experiment [2], 0.09 µM (≈ 0.0296 µg/mL) in experiment [3] (setting [5]) and 0.09 µM (≈ 0.0296 µg/mL) in experiment [3] (setting [6]).

Take `NC[C@H]1CN(c2ccc(-c3ccc(C(N)=O)cc3)c(F)c2)C(=O)O1` [Example 2, 4′-[(5S)-5-(aminomethyl)-2-oxo-1,3-oxazolidin-3-yl]-2′-fluorobiphenyl-4-carboxamide]: in experiment [1] (setting [4]), the IC50 was above 25 µM. For the same compound, the results for the MIC in experiment [2], in experiment [3] (setting [5]) and in experiment [3] (setting [6]) were 200 µM (≈ 65.9 µg/mL), 0.03 µM (≈ 0.00988 µg/mL) and 0.02 µM (≈ 0.00659 µg/mL), respectively.

Regarding `CS(=O)(=O)Nc1ccc(-c2ccc(N3C[C@H](CN)OC3=O)cc2F)cc1` [Example 17, N-{4′-[(5S)-5-(aminomethyl)-2-oxo-1,3-oxazolidin-3-yl]-2′-fluorobiphenyl-4-yl}methanesulfonamide], the IC50 in experiment [1] (setting [4]) is above 20 µM. The MIC in experiment [2] stood at 200 µM (≈ 75.9 µg/mL); in experiment [3] (setting [5]), 0.29 µM (≈ 0.11 µg/mL); in experiment [3] (setting [6]), 0.09 µM (≈ 0.0341 µg/mL).

Regarding `NC[C@H]1CN(c2ccc(-c3cnc(N4CCCOCC4)nc3)c(F)c2)C(=O)O1` [Example 29, (5S)-5-(aminomethyl)-3-{3-fluoro-4-[2-(1,4-oxazepan-4-yl)pyrimidin-5-yl]phenyl}-1,3-oxazolidin-2-one], the IC50 in experiment [1] (setting [4]) was above 25 µM. Besides, the results for the MIC in experiment [2], in experiment [3] (setting [5]) and in experiment [3] (setting [6]) were 200 µM (≈ 77.5 µg/mL), 1.5 µM (≈ 0.581 µg/mL) and 0.39 µM (≈ 0.151 µg/mL), respectively.

`O=C1O[C@@H](Cn2ccnn2)CN1c1ccc(-c2ccc(N3CCNCC3)nc2)c(F)c1` [Example 54, (R)-5-((1H-1,2,3-triazol-1-yl)methyl)-3-(3-fluoro-4-(6-(piperazin-1-yl)pyridin-3-yl)phenyl)oxazolidin-2-one]: the IC50 in experiment [1] (setting [4]) is above 20 µM. The MIC is 2.34 µM (≈ 0.991 µg/mL) in experiment [2], 0.215 µM (≈ 0.091 µg/mL) in experiment [3] (setting [5]) and 0.24 µM (≈ 0.102 µg/mL) in experiment [3] (setting [6]).

Regarding `CC(=O)NC[C@H]1CN(c2ccc(N3CCn4ncnc4C3)cc2)C(=O)O1` [Example 42, (S)—N-((3-(4-(5,6-dihydro-[1,2,4]triazolo[1,5-a]pyrazin-7(8H)-yl)phenyl)-2-oxooxazolidin-5-yl)methyl)acetamide], the IC50 in experiment [1] (HepG2, 96 h) was above 20 µM. The MIC turned out to be 200 µM (≈ 71.3 µg/mL) in experiment [2], 1.5 µM (≈ 0.535 µg/mL) in experiment [3] (setting [5]) and 1.5 µM (≈ 0.535 µg/mL) in experiment [3] (setting [6]).

On to `NC[C@H]1CN(c2ccc(-c3ccnc(Cl)c3)c(F)c2)C(=O)O1` [Example 30, (5S)-5-(aminomethyl)-3-[4-(2-chloropyridin-4-yl)-3-fluorophenyl]-1,3-oxazolidin-2-one], for which the IC50 in experiment [1] (setting [4]) was above 20 µM. Moreover, the MIC stood at 200 µM (≈ 64.3 µg/mL) in experiment [2], 0.39 µM (≈ 0.125 µg/mL) in experiment [3] (setting [5]) and 0.09 µM (≈ 0.029 µg/mL) in experiment [3] (setting [6]).

`CS(=O)(=O)c1ccc(-c2ccc(N3C[C@H](CN)OC3=O)cc2F)cc1` [Example 4, (5S)-5-(aminomethyl)-3-[2-fluoro-4′-(methylsulfonyl)biphenyl-4-yl]-1,3-oxazolidin-2-one]: the IC50 in experiment [1] (setting [4]) is 22 µM. Besides, the MIC worked out at 200 µM (≈ 72.9 µg/mL) in experiment [2], 0.09 µM (≈ 0.0328 µg/mL) in experiment [3] (setting [5]) and 0.04 µM (≈ 0.0146 µg/mL) in experiment [3] (setting [6]).

On to `CSc1ccc(-c2c(F)cc(N3C[C@H](CNC(C)=O)OC3=O)cc2F)cc1` [Example 47, (S)—N-((3-(2,6-difluoro-4′-(methylthio)-[1,1′-biphenyl]-4-yl)-2-oxooxazolidin-5-yl)methyl)acetamide], for which, in experiment [1] (setting [4]), the IC50 was above 20 µM. For the same compound, the MIC was determined as 0.781 µM (≈ 0.307 µg/mL) in experiment [2], 0.01 µM (≈ 0.00392 µg/mL) in experiment [3] (setting [5]) and 0.03 µM (≈ 0.0118 µg/mL) in experiment [3] (setting [6]).

With `CSc1ncc(-c2ccc(N3C[C@H](CN)OC3=O)cc2F)cn1` [Example 32, (5S)-5-(aminomethyl)-3-{3-fluoro-4-[2-(methylsulfanyl)pyrimidin-5-yl]phenyl}-1,3-oxazolidin-2-one], the IC50 in experiment [1] (setting [4]) was above 20 µM. Further, the MIC in experiment [2] turned out to be 200 µM (≈ 66.9 µg/mL); in experiment [3] (setting [5]), 0.29 µM (≈ 0.097 µg/mL); in experiment [3] (setting [6]), 0.24 µM (≈ 0.0803 µg/mL).

For the compound `NC[C@H]1CN(c2ccc(-c3ccc4ncnn4c3)c(F)c2)C(=O)O1` [Example 5, (5S)-5-(aminomethyl)-3-(3-fluoro-4-[1,2,4]triazolo[1,5-a]pyridin-6-ylphenyl)-1,3-oxazolidin-2-one], in experiment [1] (setting [4]), the IC50 is above 20 µM. Moreover, the figures for the MIC in experiment [2], in experiment [3] (setting [5]) and in experiment [3] (setting [6]) were 200 µM (≈ 65.5 µg/mL), 0.09 µM (≈ 0.0295 µg/mL) and 0.04 µM (≈ 0.0131 µg/mL), respectively.

Turning to `N#Cc1ccc(-c2ccc(N3C[C@H](CN)OC3=O)cc2F)cc1` [Example 18, 4′-[(5S)-5-(aminomethyl)-2-oxo-1,3-oxazolidin-3-yl]-2′-fluorobiphenyl-4-carbonitrile], in experiment [1] (setting [4]), the IC50 was above 20 µM. The MIC in experiment [2] stood at 50 µM (≈ 15.6 µg/mL); in experiment [3] (setting [5]) it was 0.09 µM (≈ 0.028 µg/mL); in experiment [3] (setting [6]) it was 0.04 µM (≈ 0.0125 µg/mL).

In the case of `NC[C@H]1CN(c2ccc(-c3cccs3)c(F)c2)C(=O)O1` [Example 56, (S)-5-(aminomethyl)-3-(3-fluoro-4-(thiophen-2-yl)phenyl)oxazolidin-2-one], the IC50 in experiment [1] (setting [4]) was above 20 µM. The values for the MIC in experiment [2], in experiment [3] (setting [5]) and in experiment [3] (setting [6]) were 100 µM (≈ 29.2 µg/mL), 0.39 µM (≈ 0.114 µg/mL) and 0.39 µM (≈ 0.114 µg/mL), respectively.

Turning to `NC[C@H]1CN(c2ccc(-c3ccc4c(c3)CNC4=O)c(F)c2)C(=O)O1` [Example 34, 5-{4-[(5S)-5-(aminomethyl)-2-oxo-1,3-oxazolidin-3-yl]-2-fluorophenyl}-2,3-dihydro-1H-isoindol-1-one], the IC50 in experiment [1] (setting [4]) was above 20 µM. For the same compound, the figures for the MIC in experiment [2], in experiment [3] (setting [5]) and in experiment [3] (setting [6]) were 200 µM (≈ 68.3 µg/mL), 0.04 µM (≈ 0.0137 µg/mL) and 0.04 µM (≈ 0.0137 µg/mL), respectively.
